Data from patent publication US20040175817A1, “Crystallised catalytic domain of matrix metalloproteinase 9 (mmp9) and the use of its three dimensional structure to design mmp9 modulators” (priority 2001, published 2004).
“Also recorded” adds a separate entry of the source.

Molecular target: T1, MMP9(107-216,391-443) (Homo sapiens, UniProt P14780, DEL217-390)
T1 construct: phenylalanine (107) and a stop codon was introduced, via the 3′ primer, after residue 443; made in house; host or cells: E. coli BL21(DE3)
T1 sequence (P14780 with tags, fused parts or gaps DEL217-390 limits assumed): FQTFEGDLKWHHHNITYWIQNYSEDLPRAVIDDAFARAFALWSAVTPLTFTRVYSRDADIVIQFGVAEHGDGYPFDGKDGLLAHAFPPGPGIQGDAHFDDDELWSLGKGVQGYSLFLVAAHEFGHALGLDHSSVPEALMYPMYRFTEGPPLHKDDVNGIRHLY
Assay: Auto-proteolysis (autodegradation) of MMP9 catalytic domain during refolding, storage and crystallisation
Format: biochemical
Excerpt: Another major hurdle in the crystallisation and structure determination of MMP9 is that the MMP9 catalytic domain is aggressively autolytic. We therefore purified wild-type MMP9 in the presence of an inhibitor and then crystallised the purified complex. Addition of an inhibitor during the refolding step following urea denaturation is essential for prevention of N-terminal degradation and the formation of well-ordered crystals.
Following expression in E. coli, MMP9(107-216,391-443) is mainly located in the inclusion body fraction. The E. coli were harvested, washed and lysed and centrifuged to isolate the insoluble protein. The insoluble fraction was then suspended in 6M Urea to solubilise the protein. To generate active MMP9(107-216,391-443) the solubilised material was dialysed sequentially versus 4M, 1M and 0M Urea. […] Post dialysis, the protein was subjected to zinc chelate chromatography which selectively bound the MMP9 catalytic domain. A further chromatography step was then carried out using the tripeptide Pro-Leu-Gly bound to sepharose which bound correctly folded MMP9 catalytic domain. The protein was then eluted by addition of an MMP9 inhibitor. Expression and refolding of the [E402Q]MMP9(107-216,391-443) construct was carried out as for the wild type construct except that no acetohydroxamic acid was added to the refold buffers. […]

## CC(=O)NO [acetohydroxamic acid]
Added to the refold buffers, wild type MMP9 catalytic domain
  auto-proteolysis of the N-terminus / autodegradation of the wild type MMP9 protein during refolding: prevent autodegradation; also recorded: inhibited auto-proteolysis of the N-terminus of the protein
Storage or crystallisation period, wild type MMP9
  autodegradation of the wild type MMP9 protein during storage or during the period of crystallisation: not sufficiently potent to prevent autodegradation
